pIC50: −log10 of the molar value. Values after ≈ are worked out from the molar mass of the structure shown. Active and inactive are the calls of the source. The rule behind the calls is not given here.
Tests used:
[1] = system: Mycobacterium tuberculosis; assay: Bactericidal activity against Mycobacterium tuberculosis H37Rv assessed as log reduction of bacterial CFU at 1.2 ug/mL after 1 week; format: functional, organism-based
[2] = system: Mycobacterium tuberculosis; assay: Antitubercular activity against Mycobacterium tuberculosis H37Rv infected in C57BL/6 mouse assessed as reduction of bacterial CFU in lung at 30 mg/kg, po administered for 8 days measured 24 hrs post last dose relative to control; format: functional
[3] = Permeability of the compound by artificial membrane permeability assay; format: physicochemical; settings: PAMPA; read-out: permeability
[4] = AUC (0 to infinity) in C57BL/6J mouse at 50 mg/kg, po; format: ADME, organism-based; parameters: time infinity, dose 50 mg/kg, route oral; settings: plasma
[5] = Half life in C57BL/6J mouse at 4 mg/kg, iv; format: ADME, organism-based; parameters: dose 4 mg/kg, route intravenous; settings: in vivo
[6] = system: Mycobacterium tuberculosis; assay: Antitubercular activity against wild type Mycobacterium tuberculosis H37Rv ATCC 25618 assessed as growth inhibition after 6 days by resazurin dye-based assay; format: functional; settings: H37Rv ATCC 25618, 144 h
[7] = Total AUC in C57BL/6J mouse at 1000 mg/kg, po measured at 24 hrs; format: ADME, organism-based; parameters: time AUCmax, dose 1000 mg/kg, route oral; settings: in vivo
Cytochrome P450 2C19 = Cytochrome P450 2C19 (Homo sapiens, UniProt P33261); assay: Inhibition of human CYP2C19 by fluorescence assay; format: ADME
[8] = system: Mycobacterium tuberculosis; assay: Bactericidal activity against Mycobacterium tuberculosis H37Rv assessed as log reduction of bacterial CFU at 20 times MIC after 1 week relative to control; format: functional
[9] = Kinetic solubility of the compound after 1 hr by CLND assay; format: physicochemical; settings: read-out: Kinetic_solubility
[10] = Cmax in C57BL/6J mouse at 50 mg/kg, po; format: ADME, organism-based; parameters: dose 50 mg/kg, route oral; settings: in vivo
[11] = Half life in human liver microsomes at 0.5 uM; format: ADME
[12] = system: Mycobacterium tuberculosis; assay: Antitubercular activity against Mycobacterium tuberculosis H37Rv infected in C57BL/6 mouse assessed as reduction of bacterial CFU in lung at 500 to 1000 mg/kg, po administered for 8 days measured 24 hrs post last dose; format: functional, organism-based
[13] = Tmax in C57BL/6J mouse at 50 mg/kg, po; format: ADME, organism-based; parameters: dose 50 mg/kg, route oral; settings: in vivo
Cytochrome P450 1A2 = target: T1, Cytochrome P450 1A2 (Homo sapiens, UniProt P05177); assay: Inhibition of human CYP1A2 by fluorescence assay; format: ADME
T1 sequence (P05177 whole entry): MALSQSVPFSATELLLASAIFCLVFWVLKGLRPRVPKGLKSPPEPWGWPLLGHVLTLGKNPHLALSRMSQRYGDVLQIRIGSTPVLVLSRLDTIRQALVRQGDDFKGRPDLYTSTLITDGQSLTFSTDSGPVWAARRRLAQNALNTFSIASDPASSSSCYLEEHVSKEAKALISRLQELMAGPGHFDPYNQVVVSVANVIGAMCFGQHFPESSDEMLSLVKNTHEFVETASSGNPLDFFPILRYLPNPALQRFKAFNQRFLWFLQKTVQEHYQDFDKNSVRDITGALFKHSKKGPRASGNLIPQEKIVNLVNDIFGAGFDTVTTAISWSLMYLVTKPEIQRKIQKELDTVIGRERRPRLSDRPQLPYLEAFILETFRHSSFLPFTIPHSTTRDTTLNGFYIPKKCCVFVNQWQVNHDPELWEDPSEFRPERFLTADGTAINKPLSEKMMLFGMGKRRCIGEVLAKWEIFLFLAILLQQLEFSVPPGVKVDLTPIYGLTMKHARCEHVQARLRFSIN

Cytochrome P450 2D6 = Cytochrome P450 2D6 (Homo sapiens, UniProt P10635); assay: Inhibition of human CYP2D6 by fluorescence assay; format: ADME
[14] = Half life in mouse liver microsomes at 0.5 uM; format: ADME, Microsome
[15] = Clearance in C57BL/6J mouse at 4 mg/kg, iv; format: ADME, organism-based; parameters: dose 4 mg/kg, route intravenous; settings: in vivo
[16] = Oral bioavailability in C57BL/6J mouse at 50 mg/kg; format: ADME, organism-based; settings: in vivo
[17] = system: Mycobacterium tuberculosis; assay: Antitubercular activity against Mycobacterium tuberculosis infected in human THP1 cells assessed as growth inhibition after 5 days by luciferase reporter gene assay; format: functional, THP-1; settings: 120 h
Liver microsome = assay: Intrinsic clearance in human liver microsomes at 0.5 uM; format: ADME
[18] = Cmax in C57BL/6J mouse at 1000 mg/kg, po measured at 24 hrs; format: ADME, organism-based; parameters: dose 1000 mg/kg, route oral; settings: in vivo
[19] = Plasma protein binding in mouse at 1 uM after 4 to 6 hrs by LC-MS/MS analysis; format: ADME, cell-free; settings: read-out: PPB (converted)
Cytochrome P450 3A4 = Cytochrome P450 3A4 (Homo sapiens, UniProt P08684); assay: Inhibition of human CYP3A4 by fluorescence assay; format: ADME
[20] = Volume of distribution in C57BL/6J mouse at 4 mg/kg, iv; format: ADME, organism-based; parameters: dose 4 mg/kg, route intravenous; settings: in vivo
Cytochrome P450 2C9 = Cytochrome P450 2C9 (Homo sapiens, UniProt P11712); assay: Inhibition of human CYP2C9 by fluorescence assay; format: ADME
[21] = Lipophilicity, log D of the compound at pH 7.4 by chromatographic analysis; format: physicochemical; settings: buffer
[22] = Plasma protein binding in human at 1 uM after 4 to 6 hrs by LC-MS/MS analysis; format: ADME, cell-free; settings: read-out: PPB (converted)
[23] = target: T2, Enoyl-[acyl-carrier-protein] reductase [NADH] (Mycobacterium tuberculosis, UniProt P9WGR1); assay: Inhibition of Mycobacterium tuberculosis full length biotinylated InhA (270 amino acids) using DDCoA as substrate assessed as NADH oxidation by fluorimetric analysis
T2 sequence (P9WGR1 whole entry): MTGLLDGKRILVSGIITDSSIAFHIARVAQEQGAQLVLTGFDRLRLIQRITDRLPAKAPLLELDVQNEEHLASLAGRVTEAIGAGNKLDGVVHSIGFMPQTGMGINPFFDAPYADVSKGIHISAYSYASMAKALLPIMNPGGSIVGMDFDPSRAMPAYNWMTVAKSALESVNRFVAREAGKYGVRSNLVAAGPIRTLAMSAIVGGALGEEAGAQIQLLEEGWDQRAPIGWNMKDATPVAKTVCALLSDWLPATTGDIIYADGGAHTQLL

[24] = Intrinsic clearance in mouse liver microsomes at 0.5 uM; format: ADME, Microsome
[25] = Intrinsic clearance in mouse hepatocytes at 1 uM; format: ADME, cell-based, Hepatocyte; settings: read-out: CLH
Hepatocyte [26] = assay: Drug metabolism in human hepatocytes assessed as oxidized metabolite formation; format: ADME, cell-based
Enterococcus faecium = assay: Antibacterial activity against Enterococcus faecium assessed as growth inhibition by broth microdilution assay; format: functional
Haemophilus influenzae = assay: Antibacterial activity against Haemophilus influenzae assessed as growth inhibition by broth microdilution assay; format: functional
Hepatocyte [27] = assay: Drug metabolism in mouse hepatocytes assessed as oxidized metabolite formation; format: ADME, cell-based
[28] = Half life in human hepatocytes at 10 uM; format: ADME, cell-based, Hepatocyte
Hepatocyte [29] = assay: Drug metabolism in human hepatocytes assessed as N-dealkylated pyrazole metabolite formation; format: ADME, cell-based
Hepatocyte [30] = assay: Drug metabolism in human hepatocytes assessed as N-dealkylated ethylamide metabolite formation; format: ADME, cell-based
HepG2 = assay: Cytotoxicity against human HepG2 cells after 48 hrs by resazurin dye-based fluorescence assay; format: cell-based; settings: HepG2, 48 h
Hepatocyte [31] = assay: Drug metabolism in mouse hepatocytes assessed as N-dealkylated ethylamide metabolite formation; format: ADME, cell-based
[32] = Intrinsic clearance in human hepatocytes at 1 uM; format: ADME, cell-based, Hepatocyte; settings: read-out: CLH
Streptococcus pyogenes = assay: Antibacterial activity against Streptococcus pyogenes assessed as growth inhibition by broth microdilution assay; format: functional
Enterococcus faecalis = assay: Antibacterial activity against Enterococcus faecalis assessed as growth inhibition by broth microdilution assay; format: functional
[33] = Half life in mouse hepatocytes at 10 uM; format: ADME, cell-based, Hepatocyte
[34] = target: Voltage-gated inwardly rectifying potassium channel KCNH2 (Homo sapiens, UniProt Q12809); assay: Displacement of [3H]-dofetilide from human ERG after 1 hr by liquid scintillation counting analysis
Escherichia coli = assay: Antibacterial activity against Escherichia coli assessed as growth inhibition by broth microdilution assay; format: functional
Streptococcus pneumoniae = assay: Antibacterial activity against Streptococcus pneumoniae assessed as growth inhibition by broth microdilution assay; format: functional
Hepatocyte [35] = assay: Drug metabolism in mouse hepatocytes assessed as N-dealkylated pyrazole metabolite formation; format: ADME, cell-based
Moraxella catarrhalis = assay: Antibacterial activity against Moraxella catarrhalis assessed as growth inhibition by broth microdilution assay; format: functional

Sequence of Cytochrome P450 2C19 (P33261 whole entry): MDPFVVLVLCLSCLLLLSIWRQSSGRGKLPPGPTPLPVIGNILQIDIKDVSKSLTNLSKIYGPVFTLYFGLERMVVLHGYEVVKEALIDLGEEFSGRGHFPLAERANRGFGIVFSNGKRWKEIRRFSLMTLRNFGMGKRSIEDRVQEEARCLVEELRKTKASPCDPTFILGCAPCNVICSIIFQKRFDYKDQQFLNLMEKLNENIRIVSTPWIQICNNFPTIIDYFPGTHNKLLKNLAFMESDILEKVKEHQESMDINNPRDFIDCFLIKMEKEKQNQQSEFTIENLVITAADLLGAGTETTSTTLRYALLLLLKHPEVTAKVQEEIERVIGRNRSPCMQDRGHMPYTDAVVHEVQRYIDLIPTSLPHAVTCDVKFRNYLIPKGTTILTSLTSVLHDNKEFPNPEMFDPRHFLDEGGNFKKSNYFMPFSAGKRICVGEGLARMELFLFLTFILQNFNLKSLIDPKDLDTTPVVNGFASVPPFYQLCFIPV
Sequence of Cytochrome P450 3A4 (P08684 whole entry): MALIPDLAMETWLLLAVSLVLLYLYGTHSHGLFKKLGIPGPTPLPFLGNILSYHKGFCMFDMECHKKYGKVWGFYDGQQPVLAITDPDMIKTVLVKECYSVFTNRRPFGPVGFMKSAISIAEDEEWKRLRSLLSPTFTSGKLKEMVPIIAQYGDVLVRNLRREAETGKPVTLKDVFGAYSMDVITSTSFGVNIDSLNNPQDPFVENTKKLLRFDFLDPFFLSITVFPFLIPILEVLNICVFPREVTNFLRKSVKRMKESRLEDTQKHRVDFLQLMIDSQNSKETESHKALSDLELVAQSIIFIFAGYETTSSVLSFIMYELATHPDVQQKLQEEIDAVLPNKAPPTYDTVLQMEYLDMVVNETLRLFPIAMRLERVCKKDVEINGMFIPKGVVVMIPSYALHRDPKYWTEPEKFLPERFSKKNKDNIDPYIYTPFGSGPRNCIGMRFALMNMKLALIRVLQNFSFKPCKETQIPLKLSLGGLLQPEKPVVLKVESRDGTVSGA
Sequence of Cytochrome P450 2D6 (P10635 whole entry): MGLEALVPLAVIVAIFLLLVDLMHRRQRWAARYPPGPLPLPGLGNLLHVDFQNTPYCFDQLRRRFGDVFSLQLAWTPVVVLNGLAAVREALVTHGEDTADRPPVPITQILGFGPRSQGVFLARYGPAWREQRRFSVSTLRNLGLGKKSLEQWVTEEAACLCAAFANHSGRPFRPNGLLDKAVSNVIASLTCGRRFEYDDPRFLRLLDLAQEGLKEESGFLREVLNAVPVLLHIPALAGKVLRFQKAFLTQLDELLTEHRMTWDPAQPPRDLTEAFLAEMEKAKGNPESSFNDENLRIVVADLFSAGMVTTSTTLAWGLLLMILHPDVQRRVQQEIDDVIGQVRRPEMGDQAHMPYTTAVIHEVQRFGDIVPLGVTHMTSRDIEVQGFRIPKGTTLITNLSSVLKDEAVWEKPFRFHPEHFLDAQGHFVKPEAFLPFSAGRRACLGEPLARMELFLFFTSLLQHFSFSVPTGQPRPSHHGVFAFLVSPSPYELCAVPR
Sequence of Cytochrome P450 2C9 (P11712 whole entry): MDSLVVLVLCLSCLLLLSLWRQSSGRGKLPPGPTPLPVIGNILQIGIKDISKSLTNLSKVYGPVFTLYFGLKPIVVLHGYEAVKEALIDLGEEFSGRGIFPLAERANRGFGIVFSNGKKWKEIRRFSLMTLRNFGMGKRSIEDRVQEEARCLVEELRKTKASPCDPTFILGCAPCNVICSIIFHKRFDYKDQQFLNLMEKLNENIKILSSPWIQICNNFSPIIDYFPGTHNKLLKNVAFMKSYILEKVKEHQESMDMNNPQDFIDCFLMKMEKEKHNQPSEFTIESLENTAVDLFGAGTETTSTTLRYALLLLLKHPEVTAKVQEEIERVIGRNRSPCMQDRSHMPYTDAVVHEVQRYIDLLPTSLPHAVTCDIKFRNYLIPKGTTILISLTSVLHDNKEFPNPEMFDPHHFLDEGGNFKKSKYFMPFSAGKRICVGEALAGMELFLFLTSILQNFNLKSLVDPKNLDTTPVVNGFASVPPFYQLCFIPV
Sequence of Voltage-gated inwardly rectifying potassium channel KCNH2 (Q12809 whole entry): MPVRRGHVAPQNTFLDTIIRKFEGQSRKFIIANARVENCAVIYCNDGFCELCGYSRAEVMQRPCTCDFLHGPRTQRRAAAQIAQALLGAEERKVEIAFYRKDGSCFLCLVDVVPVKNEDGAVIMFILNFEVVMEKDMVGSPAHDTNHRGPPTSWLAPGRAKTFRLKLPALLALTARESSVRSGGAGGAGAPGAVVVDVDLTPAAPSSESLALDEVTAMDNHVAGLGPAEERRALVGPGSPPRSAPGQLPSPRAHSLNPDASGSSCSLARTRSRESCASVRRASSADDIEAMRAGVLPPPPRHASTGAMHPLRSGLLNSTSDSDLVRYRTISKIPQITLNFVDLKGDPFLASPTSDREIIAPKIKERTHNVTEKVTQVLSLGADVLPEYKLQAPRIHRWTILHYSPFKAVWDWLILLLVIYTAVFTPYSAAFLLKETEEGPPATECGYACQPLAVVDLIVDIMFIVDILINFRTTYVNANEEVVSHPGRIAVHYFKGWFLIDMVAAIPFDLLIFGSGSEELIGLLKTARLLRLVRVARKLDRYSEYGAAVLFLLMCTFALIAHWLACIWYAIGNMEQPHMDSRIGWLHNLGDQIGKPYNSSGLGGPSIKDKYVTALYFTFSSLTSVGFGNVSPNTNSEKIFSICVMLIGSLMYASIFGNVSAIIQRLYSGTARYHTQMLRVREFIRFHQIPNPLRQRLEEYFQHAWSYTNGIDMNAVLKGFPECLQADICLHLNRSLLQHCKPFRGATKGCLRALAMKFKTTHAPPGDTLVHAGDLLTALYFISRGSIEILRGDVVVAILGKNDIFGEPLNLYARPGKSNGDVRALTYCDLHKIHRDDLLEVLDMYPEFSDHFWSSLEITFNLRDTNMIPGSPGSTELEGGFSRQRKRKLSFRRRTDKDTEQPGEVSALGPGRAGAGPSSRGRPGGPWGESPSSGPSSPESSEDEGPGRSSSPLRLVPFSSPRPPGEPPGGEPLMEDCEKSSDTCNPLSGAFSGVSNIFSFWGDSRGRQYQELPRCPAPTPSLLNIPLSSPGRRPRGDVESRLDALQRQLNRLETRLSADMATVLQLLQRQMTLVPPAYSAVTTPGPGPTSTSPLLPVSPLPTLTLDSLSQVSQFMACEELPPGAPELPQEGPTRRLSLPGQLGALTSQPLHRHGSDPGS

## COc1c(N2C[C@@H]3CCCN[C@@H]3C2)c(F)cc2c(=O)c(C(=O)O)cn(C3CC3)c12 [MOXIFLOXACIN]
[1]
  Activity: Active
[2]
  fold change (FC): 3.48

## CCc1cc(C(=O)N[C@@H]2C[C@@H](C(N)=O)N(C(=O)c3coc4ccccc34)C2)n(CC)n1
[3]
  Papp: 7.8 ×10⁻⁶ cm/s
[4]
  AUC(0-inf): 3590 ng·h/mL
[5]
  half-life: 28.2 min
[6]
  MIC90: 0.5 µM (≈ 0.212 µg/mL)
[7]
  AUC at 24 h: 73700 ng·h/mL
Cytochrome P450 2C19
  pIC50: < 4.30
[8]
  FC: >2
[9]
  solubility kinetic at 1 h: > 441 µM
[10]
  Cmax: 1750 ng/mL
[11]
  half-life at 0.5 µM: > 30 min
[12]
  Activity: inactive
[13]
  Tmax: 49.8 min
Cytochrome P450 1A2
  pIC50: < 4.30
Cytochrome P450 2D6
  pIC50: < 4.30
[14]
  half-life at 0.5 µM: > 30 min
[15]
  clearance: 85.5 mL/min/kg
[16]
  bioavailability: 35.6%
[17]
  MIC: 0.24 µM (≈ 0.102 µg/mL)
Liver microsome
  CLH: < 0.3 mL/min/g
[18]
  Cmax: 23000 ng/mL
[19]
  fraction unbound at 1 µM: 0.153
Cytochrome P450 3A4
  pIC50: < 4.30
[20]
  Vd: 3.68 L/kg
Cytochrome P450 2C9
  pIC50: < 4.30
[21]
  chromatographic logD: 2.94
[22]
  fraction unbound at 1 µM: 0.013
[23]
  pIC50: 8.40
[24]
  CLH: < 0.3 mL/min/g

## CCNC(=O)[C@@H]1C[C@@H](NC(=O)c2cc(CC)nn2C)CN1C(=O)c1coc2ccccc12
[3]
  Papp: 13 ×10⁻⁶ cm/s
[25]
  CLint scaled at 1 µM: 538 mL/min/kg
Hepatocyte [26]
  Drug metabolism: Active
Enterococcus faecium
  MIC: > 64 µM
[6]
  MIC: 8 µM (≈ 3.5 µg/mL)
Haemophilus influenzae
  MIC: > 64 µM
Hepatocyte [27]
  Drug metabolism: Active
Cytochrome P450 2C19
  pIC50: < 4.30
[9]
  solubility kinetic at 1 h: > 448 µM
[28]
  half-life at 10 µM: 227 min
Hepatocyte [29]
  Drug metabolism: Active
[11]
  half-life at 0.5 µM: > 30 min
Cytochrome P450 1A2
  pIC50: < 4.30
Hepatocyte [30]
  Drug metabolism: Active
HepG2
  pIC50: < 4.30
Cytochrome P450 2D6
  pIC50: < 4.30
[14]
  half-life at 0.5 µM: 28 min
Hepatocyte [31]
  Drug metabolism: Active
[32]
  CLint scaled at 1 µM: 19 mL/min/kg
Streptococcus pyogenes
  MIC: > 64 µM
Liver microsome
  CLH: 0.7 mL/min/g
Enterococcus faecalis
  MIC: > 64 µM
[33]
  half-life at 10 µM: 27 min
[19]
  fraction unbound at 1 µM: 0.144
[34]
  pIC50: < 4.30
Cytochrome P450 3A4
  pIC50: < 4.30
Escherichia coli
  MIC: > 64 µM
Streptococcus pneumoniae
  MIC: > 64 µM
Hepatocyte [35]
  Drug metabolism: Active
Cytochrome P450 2C9
  pIC50: < 4.30
Moraxella catarrhalis
  MIC: > 64 µM
[21]
  chromatographic logD: 2.93
[23]
  pIC50: 7.47
[24]
  CLH: 2.6 mL/min/g
